# In patent US9951039B2, “Pyrimidines for treatment of bacterial infections” (The Hong Kong Polytechnic University, priority 2016, dated 2018):
# Where two headings read alike, the source gives them in different places.
# Key:
# [1] = molecular target: T1, S. aureus FtsZ (Staphylococcus aureus, UniProt P0A031); test: GTPase hydrolysis assay (CytoPhos phosphate assay); format: biochemical
# T1 construct: 6-histidine tag; made in house; host or cells: E. coli BL21(DE3)
# T1 sequence (P0A031 1-390): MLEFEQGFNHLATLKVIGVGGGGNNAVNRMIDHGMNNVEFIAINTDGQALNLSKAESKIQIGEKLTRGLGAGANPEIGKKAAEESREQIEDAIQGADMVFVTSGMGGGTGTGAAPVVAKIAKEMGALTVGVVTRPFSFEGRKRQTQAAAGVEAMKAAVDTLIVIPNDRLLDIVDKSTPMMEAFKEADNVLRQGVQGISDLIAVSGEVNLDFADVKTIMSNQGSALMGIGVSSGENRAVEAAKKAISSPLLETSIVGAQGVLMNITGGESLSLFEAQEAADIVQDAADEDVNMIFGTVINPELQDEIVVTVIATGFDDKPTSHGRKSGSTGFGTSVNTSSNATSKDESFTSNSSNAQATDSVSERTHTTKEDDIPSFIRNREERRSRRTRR
# Description: Procedure for expression and purification of S. aureus FtsZ protein: S. aureus FtsZ protein was prepared as previous reported.^16a In brief, E. coli BL21(DE3) cells, transformed with a pRSET-A-S vector carrying S. aureus FtsZ with a 6-histidine tag attached, were streaked on a nutrient agar plate containing 50 μg/mL ampicillin. After overnight incubation at 37° C., a single colony was inoculated into 5 mL of Luria-Bertani (LB) medium in the presence of 50 μg/mL ampicillin, which was then incubated at 37° C., with shaking at 250 rpm for 16 h. The overnight culture was transferred into a fresh 2×TY medium in a dilution ratio of 1:100 and 50 μg/mL ampicillin was then added, followed by incubation at 37° C. with shaking at 250 rpm. When OD600 reached 0.8, protein expression was induced with 0.4 mM isopropyl-β-D-thiogalactopyranoside (IPTG) for 4 h. Cells were harvested by centrifugation at 9000 rpm for 20 min at 4° C. […]
# Procedure: The inhibitory effect of compound 14av_amine16 on GTPase hydrolysis activity was investigated according to the protocol described previously.^18 The GTPase activity of S. aureus FtsZ was estimated in a 96-well microplate using a CytoPhos phosphate assay Biochem Kit based on the manufacturer's instructions. […] The precipitated inorganic phosphate was quantified by measuring the absorbance at 650 nm in a microplate reader. […]
# [2] = tested on: USA300 #757 (community-associated MRSA); test: MIC against clinically isolated strain 7; format: cell-based, S. aureus; details: Staphylococcus aureus
# Description: (§1) Procedure of Antimicrobial susceptibility test: The MIC value of compounds was measured in the antimicrobial susceptibility test using the broth microdilution procedure in accordance with the CLSI guidelines.^21 Cation-adjusted Mueller Hinton broth (CA-MHB) was used for all the S. aureus strains in the assay. Cells in exponential phase of growth were diluted to approximately 5×10^5 cfu/mL. Stock solutions of each compound were freshly dissolved in dimethyl sulfoxide (DMSO). Then, serial dilutions of each compound in CA-MHB medium were added into 96-well microplate. The final percentage of DMSO in the assay was 1%. Control experiments were performed with 1% DMSO instead of the compound solution. After being incubated at 37° C. for 18 h, OD600 value of cells was measured on a microplate reader and the percentage of bacterial cell inhibition with respect to controls was calculated. The MIC value was defined as the lowest compound concentration at which the growth of bacteria was inhibited by ≥90%. Three independent assays were performed for each compound.
# (§2) Results: Three compounds, namely 14av_amine16, 14dv_amine16 and 14dv_amine06, were selected to be tested against nine in-house clinically isolated bacterial strains including S. aureus ATCC29247, which is an ampicillin resistant strain, S. aureus ATCC BAA-41, ATCC BAA-1717, ATCC BAA-1720, ATCC 43300 which are methicillin resistant strains and four USA300 strains, (#417, #757, #1799 and #2690), which are the predominant strain type of community-associated MRSA strains in the United States.
# [3] = tested on: E. coli strain ATCC25922; test: MIC, broth microdilution antimicrobial susceptibility test (CLSI); format: cell-based; details: Escherichia coli, ATCC25922; E. coli ATCC 25922; growth inhibited by ≥90%, 18 h; read-out: MIC^c: Minimum inhibitory concentration against E. coli
# Excerpt: (§3) This example illustrates the evaluation of 2,4,6-trisubstituted pyrimidines 14 for their antimicrobial activities against the Gram positive S. aureus strain ATCC29213 and the Gram negative E. coli strain ATCC25922 by measuring their MIC, which is the lowest concentration of an antimicrobial agent that prevents visible growth of a microorganism in a broth dilution susceptibility test according to the standard method approved by the Clinical and Laboratory Standards Institute (CLSI) guidelines.^21
# as §1
# [4] = tested on: S. aureus strain ATCC29213; test: as above; format: cell-based; details: for MIC: Staphylococcus aureus
# Excerpt: as §3, §1
# [5] = Compound solubility observed in aqueous medium of GTPase assay; format: physicochemical; details: higher concentration (>80 μM) causes precipitation in aqueous medium
# Excerpt: Nonetheless, it seems very likely that compound 14av_amine16 suppresses the self-polymerization of FtsZ protein, probably via disrupting the GTPase hydrolysis activity of FtsZ protein.
# [6] = tested on: S. aureus ATCC BAA-1717 (methicillin resistant); test: MIC against clinically isolated strain 2; format: cell-based; details: Staphylococcus aureus, ATCCBAA1717
# Description: as §1, §2
smiles,measurement,setting,value
"CCC(CC)c1cc(CCN2CCCN(Cc3ccc(C(F)(F)F)cc3)CC2)nc(-c2ccncc2)n1 [Compound 14av_amine16, 1-(2-(6-(pentan-3-yl)-2-(pyridin-4-yl)pyrimidin-4-yl)ethyl)-4-(4-(trifluoromethyl)benzyl)-1,4-diazepane]",inhibition at 50 µM,[1]; compound at 50 μM,~20%
same,inhibition at 75 µM,[1]; compound at 75 μM,~25%
same,MIC,[2],12 µM
same,MIC,[3],> 125 µM
same,MIC^c/MIC^b: Selectivity index,[4]; E. coli ATCC 25922 MIC over S. aureus 29213 MIC,>15
same,MIC,"[4]; ATCC29213, S. aureus 29213, growth inhibited by ≥90%, 18 h, read-out: MIC^b: Minimum inhibitory concentration against S. aureus",8 µM
same,MIC,"[4]; S. aureus ATCC29213, read-out: MIC against S. aureus",5 to 8 µM
same,compound solubility,[5],poor compound solubility
same,MIC,[6],8 µM
